According to article PMC7167990, “Therapeutic Effects of Atranorin towards the Proliferation of Babesia and Theileria Parasites” (Pathogens, 2020):

Legend:
[1] = tested on: B. microti; details: B. microti in vivo; cited from earlier work
[2] = tested on: T. equi; test: In vitro growth inhibition, Babesia fluorescent (SYBR Green I) assay; type: cell-based; details: 96 h, 4 days culture, mean of triplicate experiments
Protocol: (§1) Babesia parasite was incubated and maintained at 37 °C in a humidifying chamber under 5% CO2, 5% O2, and 90% N2 atmosphere using a microaerophilic stationary-phase culture for conducting the in vitro experiment. Briefly, Germany strain Babesia divergens was cultured in cattle RBCs in Roswell Park Memorial Institute 1640 (RPMI 1640; Sigma-Aldrich, St. Louis, MO, USA) medium replenished with 40% cattle serum, while culture medium 199 (M199; Sigma-Aldrich) was utilized for the Argentina strain B. bigemina and Texas strain B. bovis, and T. equi USDA strain cultured in cattle RBCs supplemented with 40% cattle serum and horse RBCs maintained in hypoxanthine (MP Biomedicals, Santa Ana, CA, USA; final concentration 13.6 μg/mL) and 40% horse serum, respectively. GIT medium complemented with 40% horse serum was used as a growth medium for the USDA strain of B. caballi cultured in horse RBCs. To ensure free-bacterial contamination, amphotericin B (0.15 μg/mL) (Sigma-Aldrich), streptomycin (60 U/mL) and penicillin G (60 U/mL) were added to all medium.
(§2) The Babesia fluorescent assay was carried out on the in vitro culture as previously reported elsewhere to assess the growth of the inhibitory effectiveness of ATR and the combination treatment with DA, CF, and AV. Briefly, in three separate trials, using two-fold dilution, different concentrations of ATR, DA, CF, and AV were prepared in the culture medium and added in 96-well plates in triplicate with 1% parasitemia for T. equi, B. divergens and B. caballi at 5% HCT, while for B. bigemina and B. bovis using 2.5% HCT. The drug combined efficacy was conducted at the same time with the single-treatment assay in accordance with the Chou–Talalay method. […] On day four of culture, an aliquot (100 µL) of lysis buffer mixed with 0.2μL/mL SG1 was added per well; subsequently, it was covered with aluminum foil to prevent exposure to light. After incubation for 6-h at 37 °C, fluorescence readings were acquired on a spectrofluorimeter (Fluoroskan Ascent, Thermo Fisher Scientific, Oceanside, CA, USA) with a 485 nm excitation wavelength and a 518 nm emission wavelength.
(§3) The IC50 values of ATR, DA, CF, and AV were established from the in vitro growth inhibition by nonlinear regression curve fit on a GraphPad Prism (GraphPad Software Inc., San Diego, CA, USA). […] The significant variations (p < 0.05) among group mean values on parasitemia and one-way ANOVA Tukey’s test in GraphPad Prism version 5.0 was used to analyze hematology profiles in mice infected with B. microti.

[3] = tested on: B. divergens; test: as above; type: cell-based; details: 96 h, 4 days culture, mean of triplicate experiments
Protocol: as §1, §2, §3

[4] = tested on: B. bovis; test: as above; type: cell-based; details: Bos taurus, 96 h, 4 days culture, mean of triplicate experiments
Protocol: as §1, §2, §3

[5] = tested on: B. bigemina; test: as above; type: cell-based; details: 96 h, 4 days culture, mean of triplicate experiments
Protocol: as §1, §2, §3

[6] = tested on: HFFs; test: Cytotoxicity assay (CCK-8 cell viability); type: cell-based, human
Protocol: (§4) Cultures of human foreskin fibroblast (HFF; HFF-1 ATCC® SCRC-1041™), Madin–Darby bovine kidney (MDBK; ECACC) and mouse embryonic fibroblast (NIH/3T3; ATCC® CRL-1658™) cells were retrieved from −80 °C stock and cultured continuously at 37 °C under atmosphere 5% CO2 in our laboratory. The NIH/3T3 and HFFs cells were maintained in Dulbecco Modified Eagle’s Medium (DMEM; Gibco, Grand Island, NY, USA), while MDBK cell line grown in Minimum Essential Medium Eagle (MEM; Gibco). Each medium was treated with 0.5% penicillin/streptomycin (Gibco), 10% inactivated fetal bovine serum and 2 mM glutamine. Every 72 to 96 h, the medium was replaced, and once 80% confluence was reached, the cell collection was performed by sub-culture protocol. To confirm the absence of mycoplasma contamination, 4,6-diamidino-2-phenylindole dihydrochloride stain (Sigma-Aldrich) was used.
(§5) The cell viability test was conducted in a 96-well plate as described elsewhere. Briefly, an aliquot of (100 µL) cells was implanted at a concentration of 5 × 10^4 cells/mL in DMEM or MEM with fetal bovine serum and incubated overnight under atmosphere 5% CO2 at 37 °C for attachment. Using two-fold dilutions, aliquots (10 µL) of drugs were added in triplicate per well to attain final concentrations of 50 to 1000 µM and further incubated for 24 h. The positive control wells containing cells mixed with the medium in 0.4% DMSO, whereas the negative control wells containing culture medium only. After a 24-h incubation, Cell Counting Kits-8 (CCK-8, 10 µL) was added to each well and then plate incubation was conducted for an additional 3 h and a microplate reader was used to assess the absorbance at 450 nm.

[7] = tested on: MDBK cells; test: Cytotoxicity assay (CCK-8 cell viability); type: cell-based, bovine
Protocol: as §4, §5

[8] = tested on: NIH/3T3 cells; test: Cytotoxicity assay (CCK-8 cell viability); type: cell-based, mouse
Protocol: as §4, §5

SMILES: CO[C@H]1/C=C\C=C(/C)C(=O)NC2=CC(=O)C(NCCN(C)C)=C(C[C@@H](C)C[C@H](OC)[C@H](O)[C@@H](C)/C=C(\C)[C@@H]1OC(N)=O)C2=O [17-DMAG]
- chemotherapeutic effect [1]: 89%

SMILES: CC(C)/N=c1\cc2n(-c3ccc(Cl)cc3)c3ccccc3nc-2cc1Nc1ccc(Cl)cc1 [CF, clofazimine]
- IC50 [2]: 2.88 ± 0.9 µM
- IC50 [3]: 13.8 ± 4.3 µM
- IC50 [4]: 8.24 ± 1.7 µM
- IC50 [5]: 5.73 ± 1.9 µM
- Selective Index HFFs ([6]; EC50 HFFs / IC50 B. bigemina): ˃17.5
- Selective Index HFFs ([6]; EC50 HFFs / IC50 B. bovis): ˃12.1
- Selective Index HFFs ([6]; EC50 HFFs / IC50 B. caballi): ˃12.6
- Selective Index HFFs ([6]; EC50 HFFs / IC50 B. divergens): ˃7.2
- Selective Index HFFs ([6]; EC50 HFFs / IC50 T. equi): ˃34.7
- EC50 ([6]; Homo sapiens, HFFs, 24 h, CCK-8): > 100 µM
- EC50 ([7]; Bos taurus, MDBK cells, 24 h, CCK-8): 34.7 ± 3.4 µM
- Selective Index MDBK ([7]; EC50 MDBK / IC50 B. bigemina): 6.1
- Selective Index MDBK ([7]; EC50 MDBK / IC50 B. bovis): 4.2
- Selective Index MDBK ([7]; EC50 MDBK / IC50 B. caballi): 4.4
- Selective Index MDBK ([7]; EC50 MDBK / IC50 B. divergens): 2.5
- Selective Index MDBK ([7]; EC50 MDBK / IC50 T. equi): 12.1
- Selective Index NIH/3T3 ([8]; EC50 NIH/3T3 / IC50 B. bigemina): ˃17.5
- Selective Index NIH/3T3 ([8]; EC50 NIH/3T3 / IC50 B. bovis): ˃12.1
- Selective Index NIH/3T3 ([8]; EC50 NIH/3T3 / IC50 B. caballi): ˃12.6
- Selective Index NIH/3T3 ([8]; EC50 NIH/3T3 / IC50 B. divergens): ˃7.2
- Selective Index NIH/3T3 ([8]; EC50 NIH/3T3 / IC50 T. equi): ˃34.7
- EC50 ([8]; Mus musculus, NIH3T3, NIH/3T3 cells, 24 h, CCK-8, read-out: EC50 NIH/3T3): > 100 µM

SMILES: C=CCS[S+]([O-])CC=C (stereo not drawn) [allicin]
- chemotherapeutic effect [1]: 58.3%

SMILES: O=c1oc2c(O)c(O)cc3c(=O)oc4c(O)c(O)cc1c4c23 [ellagic acid]
- chemotherapeutic effect [1]: 49%

SMILES: CCn1cc(C(=O)O)c(=O)c2cc(F)c(N3CCNCC3)nc21 [enoxacin]
- chemotherapeutic effect [1]: 34%

SMILES: COc1cc2c[n+](C)c3c4cc5c(cc4ccc3c2cc1OC)OCO5 [nitidine chloride]
- chemotherapeutic effect [1]: 91%

SMILES: CCn1cc(C(=O)O)c(=O)c2cc(F)c(N3CCNCC3)cc21 [norfloxacin]
- chemotherapeutic effect [1]: 31%

SMILES: CC1COc2c(N3CCN(C)CC3)c(F)cc3c(=O)c(C(=O)O)cn1c23 (stereo not drawn) [ofloxacin]
- chemotherapeutic effect [1]: 49%

SMILES: CC1=CC(=O)C(C(C)C)=CC1=O [thymoquinone]
- chemotherapeutic effect [1]: 37%
